Measurements: US8280710B2, “Method for determining thermal stability of collagen or collagen-like peptide” (University of Medicine and Dentistry of New Jersey, priority 2005, dated 2012)
Non-standard residues stand in square brackets, D forms with d. Residues, ends and D or L forms follow the SMILES beside them. Hyp = O=C(O)[C@@H]1C[C@@H](O)CN1

Columns and labels:
[1] = peptide of Table 3, defined standard conditions
Experimental: The propensity measurements for all 20 amino acid residues in the Xaa1 position in a Gly-Xaa1-Hyp context and all 20 amino acid residues in the Xaa2 position in a Gly-Pro-Xaa2 context were determined by measuring thermal stability of host-guest peptides (Persikov, et al. (2000) supra).
The Tm values of all host-guest peptides were measured under a set of standard conditions, with c=1 mg/ml in phosphate-buffered saline, pH 7.0, and with a heating rate average of 0.1° C./minute (Persikov, et al. (2004) supra).

[2] = Method for predicting global Tm of collagen peptides from amino acid sequence; details: observed minus predicted, peptides of Table 3
Experimental: The global thermal stability of homotrimeric triple helical peptides with length of at least 6 tripeptide units and, in most cases, containing 10 tripeptide units was determined as follows.
For the total number of triplets n in a given peptide, the base Tm^0(n) for (Pro-Hyp-Gly) or (Pro-Pro-Gly)n was calculated from the length dependence (Equation 1), including any effect of blocking groups;
The melting temperature value was decreased for every triplet in the sequence that was not Gly-Pro-Hyp, subtracting a value of ΔTm^GXY (Table 1). The N-terminal and C-terminal tripeptide units were excluded from the calculation due to the staggering of the chains and the disorder for the peptide ends (Bella et al. (1994) supra; Li, et al. (1993) Biochemistry 32:7377-7387; Kramer, et al. (2001) J. Mol. Biol. 301:1191-1205).
The resulting value for the peptide melting temperature was adjusted using the ΔTm^int values for interactions between neighboring tripeptides (Table 2).
The method was formulated as follows.
To extrapolate the dependence of the Tm of the host peptides on peptide length, the experimental values for (Pro-Hyp-Gly)n and (Pro-Pro-Gly)n versus n, where n is the number of tripeptide units, were fit to the exponential decay function
[formula] where Tm^0(n) is defined as the base thermal stability of the repeating polytripeptide standard, Tm^max is the maximum melting temperature, and the constant n0 represents the length of the repeating peptide with Tm=0.

| Compound | Tm^obs [1] [°C] | ΔTm [2] |
| --- | --- | --- |
| CC(=O)NCC(=O)N1CCC[C@H]1C(=O)N1C[C@H](O)C[C@H]1C(=O)NCC(=O)N1CCC[C@H]1C(=O)N1C[C@H](O)C[C@H]1C(=O)NCC(=O)N[C@@H](CCCNC(=N)N)C(=O)N[C@@H](CCC(N)=O)C(=O)NCC(=O)N[C@@H](CCCCN)C(=O)N[C@@H](CCCNC(=N)N)C(=O)NCC(=O)N[C@@H](CCCCN)C(=O)N1C[C@H](O)C[C@H]1C(=O)NCC(=O)N1CCC[C@H]1C(=O)N1C[C@H](O)C[C@H]1C(=O)NCC(=O)N1CCC[C@H]1C(=O)N1C[C@H](O)C[C@H]1C(=O)NCC(=O)N1CCC[C@H]1C(=O)N1C[C@H](O)C[C@H]1C(=O)NCC(=O)NCC(N)=O [AchE-HG-Alt, Ac-GPO-GPO-GRQ-GKR-GKO-GPO-GPO-GPO-GG-NH2] (Ac-GP[Hyp]GP[Hyp]GRQGKRGK[Hyp]GP[Hyp]GP[Hyp]GP[Hyp]GG-NH2) | 20.1 | −0.5 °C |
| CC(=O)NCC(=O)N1CCC[C@H]1C(=O)N1C[C@H](O)C[C@H]1C(=O)NCC(=O)N1CCC[C@H]1C(=O)N1C[C@H](O)C[C@H]1C(=O)NCC(=O)N1CCC[C@H]1C(=O)N1C[C@H](O)C[C@H]1C(=O)NCC(=O)N[C@@H](CCCCN)C(=O)N[C@@H](CCCNC(=N)N)C(=O)NCC(=O)N[C@@H](CCCCN)C(=O)N1C[C@H](O)C[C@H]1C(=O)NCC(=O)N1CCC[C@H]1C(=O)N1C[C@H](O)C[C@H]1C(=O)NCC(=O)N1CCC[C@H]1C(=O)N1C[C@H](O)C[C@H]1C(=O)NCC(=O)N1CCC[C@H]1C(=O)N1C[C@H](O)C[C@H]1C(=O)NCC(=O)NCC(N)=O [AchE-HG-C1, Ac-GPO-GPO-GPO-GKR-GKO-GPO-GPO-GPO-GG-NH2] (Ac-GP[Hyp]GP[Hyp]GP[Hyp]GKRGK[Hyp]GP[Hyp]GP[Hyp]GP[Hyp]GG-NH2) | 32.3 | −1.0 °C |
| CC(=O)NCC(=O)N1CCC[C@H]1C(=O)N1C[C@H](O)C[C@H]1C(=O)NCC(=O)N1CCC[C@H]1C(=O)N1C[C@H](O)C[C@H]1C(=O)NCC(=O)N[C@@H](CCCNC(=N)N)C(=O)N1C[C@H](O)C[C@H]1C(=O)NCC(=O)N[C@@H](CCCCN)C(=O)N[C@@H](CCCNC(=N)N)C(=O)NCC(=O)N[C@@H](CCCCN)C(=O)N1C[C@H](O)C[C@H]1C(=O)NCC(=O)N1CCC[C@H]1C(=O)N1C[C@H](O)C[C@H]1C(=O)NCC(=O)N1CCC[C@H]1C(=O)N1C[C@H](O)C[C@H]1C(=O)NCC(=O)N1CCC[C@H]1C(=O)N1C[C@H](O)C[C@H]1C(=O)NCC(=O)NCC(N)=O [AchE-HG-C2, Ac-GPO-GPO-GRO-GKR-GKO-GPO-GPO-GPO-GG-NH2] (Ac-GP[Hyp]GP[Hyp]GR[Hyp]GKRGK[Hyp]GP[Hyp]GP[Hyp]GP[Hyp]GG-NH2) | 26.9 | 0.3 °C |
| CC(=O)NCC(=O)N1CCC[C@H]1C(=O)N1C[C@H](O)C[C@H]1C(=O)NCC(=O)N1CCC[C@H]1C(=O)N1C[C@H](O)C[C@H]1C(=O)NCC(=O)N[C@@H](CCCNC(=N)N)C(=O)N1C[C@H](O)C[C@H]1C(=O)NCC(=O)N[C@@H](CCCCN)C(=O)N[C@@H](CCCNC(=N)N)C(=O)NCC(=O)N[C@@H](CCCCN)C(=O)N[C@@H](CCC(N)=O)C(=O)NCC(=O)N1CCC[C@H]1C(=O)N1C[C@H](O)C[C@H]1C(=O)NCC(=O)N1CCC[C@H]1C(=O)N1C[C@H](O)C[C@H]1C(=O)NCC(=O)N1CCC[C@H]1C(=O)N1C[C@H](O)C[C@H]1C(=O)NCC(=O)NCC(N)=O [AchE-HG-C3, Ac-GPO-GPO-GRO-GKR-GKQ-GPO-GPO-GPO-GG-NH2] (Ac-GP[Hyp]GP[Hyp]GR[Hyp]GKRGKQGP[Hyp]GP[Hyp]GP[Hyp]GG-NH2) | 21.3 | −2.7 °C |
| CC(=O)NCC(=O)N1CCC[C@H]1C(=O)N1C[C@H](O)C[C@H]1C(=O)NCC(=O)N1CCC[C@H]1C(=O)N1C[C@H](O)C[C@H]1C(=O)NCC(=O)N[C@@H](CCCNC(=N)N)C(=O)N1C[C@H](O)C[C@H]1C(=O)NCC(=O)N[C@@H](CCCCN)C(=O)N[C@@H](CCCNC(=N)N)C(=O)NCC(=O)N[C@@H](CCCCN)C(=O)N[C@@H](CCC(N)=O)C(=O)NCC(=O)N[C@@H](CCC(N)=O)C(=O)N[C@@H](CCCCN)C(=O)NCC(=O)N1CCC[C@H]1C(=O)N1C[C@H](O)C[C@H]1C(=O)NCC(=O)N1CCC[C@H]1C(=O)N1C[C@H](O)C[C@H]1C(=O)NCC(=O)NCC(N)=O [AchE-HG-C4, Ac-GPO-GPO-GRO-GKR-GKQ-GQK-GPO-GPO-GG-NH2] (Ac-GP[Hyp]GP[Hyp]GR[Hyp]GKRGKQGQKGP[Hyp]GP[Hyp]GG-NH2) | 8.1 | −1.2 °C |
| CC(=O)NCC(=O)N1CCC[C@H]1C(=O)N1C[C@H](O)C[C@H]1C(=O)NCC(=O)N1CCC[C@H]1C(=O)N1C[C@H](O)C[C@H]1C(=O)NCC(=O)N1CCC[C@H]1C(=O)N1C[C@H](O)C[C@H]1C(=O)NCC(=O)N[C@@H](CCCNC(=N)N)C(=O)N[C@@H](CCCCN)C(=O)NCC(=O)N[C@@H](CCCNC(=N)N)C(=O)N1C[C@H](O)C[C@H]1C(=O)NCC(=O)N1CCC[C@H]1C(=O)N1C[C@H](O)C[C@H]1C(=O)NCC(=O)N1CCC[C@H]1C(=O)N1C[C@H](O)C[C@H]1C(=O)NCC(=O)N1CCC[C@H]1C(=O)N1C[C@H](O)C[C@H]1C(=O)NCC(=O)NCC(N)=O [AchE-HG-N1, Ac-GPO-GPO-GPO-GRK-GRO-GPO-GPO-GPO-GG-NH2] (Ac-GP[Hyp]GP[Hyp]GP[Hyp]GRKGR[Hyp]GP[Hyp]GP[Hyp]GP[Hyp]GG-NH2) | 22.2 | −0.6 °C |
| CC(=O)NCC(=O)N1CCC[C@H]1C(=O)N1C[C@H](O)C[C@H]1C(=O)NCC(=O)N1CCC[C@H]1C(=O)N1C[C@H](O)C[C@H]1C(=O)NCC(=O)N[C@@H](CCCNC(=N)N)C(=O)N1C[C@H](O)C[C@H]1C(=O)NCC(=O)N[C@@H](CCCNC(=N)N)C(=O)N[C@@H](CCCCN)C(=O)NCC(=O)N[C@@H](CCCNC(=N)N)C(=O)N1C[C@H](O)C[C@H]1C(=O)NCC(=O)N1CCC[C@H]1C(=O)N1C[C@H](O)C[C@H]1C(=O)NCC(=O)N1CCC[C@H]1C(=O)N1C[C@H](O)C[C@H]1C(=O)NCC(=O)N1CCC[C@H]1C(=O)N1C[C@H](O)C[C@H]1C(=O)NCC(=O)NCC(N)=O [AchE-HG-N2, Ac-GPO-GPO-GRO-GRK-GRO-GPO-GPO-GPO-GG-NH2] (Ac-GP[Hyp]GP[Hyp]GR[Hyp]GRKGR[Hyp]GP[Hyp]GP[Hyp]GP[Hyp]GG-NH2) | 17.4 | 1.3 °C |
| CC(=O)NCC(=O)N1CCC[C@H]1C(=O)N1C[C@H](O)C[C@H]1C(=O)NCC(=O)N1CCC[C@H]1C(=O)N1C[C@H](O)C[C@H]1C(=O)NCC(=O)N1CCC[C@H]1C(=O)N1C[C@H](O)C[C@H]1C(=O)NCC(=O)N1CCC[C@H]1C(=O)N1C[C@H](O)C[C@H]1C(=O)NCC(=O)N1CCC[C@H]1C(=O)N[C@@H](C)C(=O)NCC(=O)N1CCC[C@H]1C(=O)N[C@@H](C)C(=O)NCC(=O)N1CCC[C@H]1C(=O)N[C@H](C(=O)NCC(=O)N1CCC[C@H]1C(=O)N[C@@H](C)C(=O)NCC(=O)N[C@@H](C)C(=O)N[C@@H](CCCNC(=N)N)C(=O)NCC(=O)N1CCC[C@H]1C(=O)N[C@@H](C)C(=O)NCC(=O)N[C@H](C(N)=O)C(C)C)C(C)C [T1-892r, Ac-(GPO)4-GPA-GPA-GPV-GPA-GAR-GPA-GV-NH2] (Ac-GP[Hyp]GP[Hyp]GP[Hyp]GP[Hyp]GPAGPAGPVGPAGARGPAGV-NH2) |  | −2.2 °C |
| MBL: MBL peptide(s) of Table 3 containing Gly-Lys-Asp-Gly-Arg-Asp-Gly-Thr-Lys-Gly-Glu-Lys-Gly-Glu-Hyp; not said whether MBL 42-61 or 45-61 (GKDGRDGTKGEKGEP) |  | higher than observed |
